Laboratory results published in patent US20260091026A1, “METHODS OF TREATING INFLAMMATORY DISEASES” (INTERLINE THERAPEUTICS, INC., priority 2023, published 2026).
pIC50: −log10 of the molar value. Where two headings read alike, the source gives them in different places.

How the values were obtained:
[1] = target: T1, GST-RIPK2 fusion protein (human RIPK2 amino acids 1-310) (Homo sapiens, UniProt O43353); experiment: RIPK2 binding competition assay (TR-FRET, Tracer 199); details: displacement of Tracer 199 (10 nM), 45 min at 22° C.
T1 construct: made in house; host or cells: baculovirus-infected Sf9 cells
Description: The ability of selected compounds of Formulas (I) and (II) to inhibit the binding of an Alexa647-labelled ATP-competitive kinase inhibitor to a GST-RIPK2 fusion protein was quantified employing the TR-FRET-based RIPK2 binding competition assay as described in the following paragraphs.
Recombinant fusion protein of N-terminal Glutathione-S-Transferase (GST) and a fragment of human RIPK2 (amino acids 1-310 of accession number 043353), expressed in baculovirus infected Sf9 cells, purified via glutathione affinity chromatography, was used as GST-RIPK2 fusion protein. Tracer 199 from Life Technologies (catalogue no. PR9115B) was used as Alexa647-labelled ATP-competitive kinase inhibitor.
For the assay, 50 nL of a 100-fold concentrated solution of each test compound in DMSO was pipetted into either a black low volume 384-well microtiter plate or a black 1536-well microtiter plate (both Greiner Bio-One, Frickenhausen, Germany), 3 μL solution of Tracer 199 (16.7 nM=>final concentration in 5 μL assay volume is 10 nM) in aqueous assay buffer (25 mM Tris/HCl pH 7.5, 10 mM magnesium chloride (MgCl2), 5 mM β-glycerophosphate, 2.5 mM dithiothreitol (DTT), 0.5 mM ethylene glycol-bis(2-aminoethylether)-N,N,N′,N′-tetraacetic acid (EGTA), 0.5 mM sodium ortho-vanadate, 0.01% (w/v) bovine serum albumin (BSA), 0.005% (w/v) Pluronic F-127 (Sigma)) were added. Then the binding competition was started by the addition of 2 μL of a solution of the GST-RIPK2 fusion protein (2.5 nM=>final conc. in the 5 μL assay volume is 1 nM) and of Anti-GST-Tb (1.25 nM=>final conc. in the 5 μL assay volume is 0.5 nM), a Lumi4®—Tb cryptate-conjugated anti-GST antibody from PerkinElmer (catalogue no 61GSTTAH), in assay buffer.
The resulting mixture was incubated 45 min at 22° C. to allow the formation of a complex between the Tracer 199, the fusion protein and Anti-GST-Tb. Subsequently, the amount of this complex was evaluated by measurement of the resonance energy transfer from the Tb-cryptate to the Tracer 199. Therefore, the fluorescence emissions at 620 nm and 665 nm after excitation at 337 nm were measured in a TR-FRET reader, e.g. a Pherastar FS(BMG Labtechnologies, Offenburg, Germany) or a Viewlux (PerkinElmer). The ratio of the emissions at 665 nm and at 620 nm was taken as the measure of the amount of the complex. The data were normalized (assay reaction without inhibitor=0% activity, all other assay components but no GST-RIPK2 fusion protein=−100% activity).

[2] = target: T2, RIPK2 (KD)/XIAP (BIR2) (Homo sapiens, UniProt O43353); experiment: RIPK2-XIAP binding competition PPI assay (TR-FRET); details: for Emax / PPI Amax: 50 nM of GSK583 = -100% activity; for Emax: read-out: PPI Amax; for pIC50: GST-RIPK2 / His-XIAP (BIR2)-avi, 120 min at 23° C.
T2 construct: made in house; host or cells: baculovirus-infected Sf9 cells
Summary of the method: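 TR-FRET competition between GST-RIPK2 (aa 1-310, 1 nM) and His-XIAP BIR2-avi (aa 152-231, 25 nM), both Sf9-expressed, detected with anti-His-XL665 and anti-GST-Tb in Tris pH 7.5 buffer with MgCl2, DTT and vanadate. Incubation was 120 min at 23 °C; the 665/520 nm ratio was normalized to no inhibitor (0%) and 50 nM GSK583 (−100%).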

[3] = system: THP1-Dual cells, NF-κB pathway (SEAP); experiment: THP-1 Dual cell SEAP assay (L18-MDP stimulated); assay type: cell-based; details: 10 ng/mL L18-MDP, 20-24 h, SEAP readout, read-out: IFNγ THP1 IC50
Summary of the method: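 About 25,000 THP1-Dual cells per well were preincubated 30 min with serially diluted compound, then stimulated overnight (20-24 h, 37 °C) with 10 ng/mL L18-MDP (final). NF-κB-driven SEAP in supernatant was read with QUANTI-Blue at OD 620-655 nm after 2 h; % inhibition versus DMSO/L18-MDP wells was fitted by non-linear regression to give IC50.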

T2 sequence (O43353 1-310): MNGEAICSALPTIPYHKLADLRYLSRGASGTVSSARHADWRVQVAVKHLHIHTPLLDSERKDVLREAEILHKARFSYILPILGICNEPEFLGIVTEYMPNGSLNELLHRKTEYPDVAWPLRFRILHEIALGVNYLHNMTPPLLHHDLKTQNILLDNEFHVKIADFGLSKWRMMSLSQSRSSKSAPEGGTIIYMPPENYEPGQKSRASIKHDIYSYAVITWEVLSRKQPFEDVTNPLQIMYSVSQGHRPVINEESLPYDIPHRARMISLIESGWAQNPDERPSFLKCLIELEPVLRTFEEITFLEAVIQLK
T1 sequence (O43353 1-310): as above

| Compound | pIC50 [1] | Emax [2] [%] | pIC50 [2] | pIC50 ([3]; Homo sapiens) | PPI Amax [2] | pIC50 [3] |
| --- | --- | --- | --- | --- | --- | --- |
| COc1cc2ncc(-n3cc(NC(=O)N4CCCC4c4ccccc4)cn3)n2cc1S(=O)(=O)C(C)(C)C (racemic) [Example 177, N-(1-(6-(tert-butylsulfonyl)-7-methoxyimidazo[1,2-a]pyridin-3-yl)-1H-pyrazol-4-yl)-2-phenylpyrrolidine-1-carboxamide] | < 6.00 | ≥ 80 | < 6.00 | < 5.60 | – | – |
| COc1cc2ncc(-n3cc(N4CCC(c5ccccc5)C4=O)cn3)n2cc1S(=O)(=O)C(C)(C)C (racemic) [Example 180, 1-(1-(6-(tert-butylsulfonyl)-7-methoxyimidazo[1,2-a]pyridin-3-yl)-1H-pyrazol-4-yl)-3-phenylpyrrolidin-2-one] | < 6.00 | ≥ 80 | < 6.00 | < 5.60 | – | – |
| COc1cc2ncc(-n3cc(NC(=O)N4CCCC4c4ccccc4)cn3)n2cc1S(=O)(=O)C(C)(C)C (single isomer, unassigned) [Example 178, (R)- or (S)-N-(1-(6-(tert-butylsulfonyl)-7-methoxyimidazo[1,2-a]pyridin-3-yl)-1H-pyrazol-4-yl)-2-phenylpyrrolidine-1-carboxamide] | < 6.00 | – | < 6.00 | < 5.60 | C (Amax of 55%>C>30) | – |
| COc1cc2ncc(-n3cc(NC(=O)N4CCCC4c4ccccc4)cn3)n2cc1S(=O)(=O)C(C)(C)C (single isomer, unassigned) [Example 179, (S)- or (R)-N-(1-(6-(tert-butylsulfonyl)-7-methoxyimidazo[1,2-a]pyridin-3-yl)-1H-pyrazol-4-yl)-2-phenylpyrrolidine-1-carboxamide] | 6.00 to 6.30 | – | < 6.00 | – | A (Amax of ≥80%) | < 5.60 |
| COc1cc2ncc(-n3cc(N4CCC(c5ccccc5)C4=O)cn3)n2cc1S(=O)(=O)C(C)(C)C (single isomer, unassigned) [Example 182, (R)- or (S)-1-(1-(6-(tert-butylsulfonyl)-7-methoxyimidazo[1,2-a]pyridin-3-yl)-1H-pyrazol-4-yl)-3-phenylpyrrolidin-2-one] | < 6.00 | – | < 6.00 | < 5.60 | C (Amax of 55%>C>30) | – |
| COc1cc2ncc(-n3cc(N4CCC(c5ccccc5)C4=O)cn3)n2cc1S(=O)(=O)C(C)(C)C (single isomer, unassigned) [Example 183, (S)- or (R)-1-(1-(6-(tert-butylsulfonyl)-7-methoxy-imidazo[1,2-a]pyridin-3-yl)-1H-pyrazol-4-yl)-3-phenylpyrrolidin-2-one] | < 6.00 | – | < 6.00 | – | A (Amax of ≥80%) | < 5.60 |
| COc1cc2ncc(-n3cc(C(=O)NCc4ccccc4)cn3)n2cc1S(=O)(=O)C(C)(C)C [Example 1, N-benzyl-1-(6-(tert-butylsulfonyl)-7-methoxyimidazo[1,2-a]pyridin-3-yl)-1H-pyrazole-4-carboxamide] | 6.30 to 6.70 | ≥ 80 | 6.00 to 7.00 | < 5.60 | – | – |
| COc1cc2ncc(-n3cc(C(=O)NCc4ccccc4Cl)cn3)n2cc1S(=O)(=O)C(C)(C)C [Example 2, 1-(6-(tert-butylsulfonyl)-7-methoxyimidazo [1,2-a]pyridin-3-yl)-N-(2-chlorobenzyl)-1H-pyrazole-4-carboxamide] | 6.30 to 6.70 | ≥ 80 | 6.00 to 7.00 | < 5.60 | – | – |
| COc1cc2ncc(-n3cc(C(=O)NCc4c(F)cc(F)cc4F)cn3)n2cc1S(=O)(=O)C(C)(C)C [Example 3, 1-(6-(tert-butylsulfonyl)-7-methoxyimidazo [1,2-a]pyridin-3-yl)-N-(2,4,6-trifluorobenzyl)-1H-pyrazole-4-carboxamide] | < 6.00 | 30 to 55 | < 6.00 | < 5.60 | – | – |
| COc1cc2ncc(-c3cc(C(=O)NCc4ccccc4Cl)n(C)n3)n2cc1S(=O)(=O)C(C)(C)C [Example 4, 3-(6-(tert-butylsulfonyl)-7-methoxyimidazo[1,2-a]pyridin-3-yl)-N-(2-chlorobenzyl)-1-methyl-1H-pyrazole-5-carboxamide] | > 6.70 | ≥ 80 | 7.00 to 8.00 | 5.60 to 6.30 | – | – |
| COc1cc2ncc(-c3cc(C(=O)N(C)C)n(C)n3)n2cc1S(=O)(=O)C(C)(C)C [Example 5, 3-(6-(tert-butylsulfonyl)-7-methoxyimidazo[1,2-a]pyridin-3-yl)-N,N,1-trimethyl-1H-pyrazole-5-carboxamide] | > 6.70 | ≤ 30 | < 6.00 | < 5.60 | – | – |
| COc1cc2ncc(-c3cc(C(=O)NC4CCCCC4)n(C)n3)n2cc1S(=O)(=O)C(C)(C)C [Example 6, 3-(6-(tert-butylsulfonyl)-7-methoxyimidazo[1,2-a]pyridin-3-yl)-N-cyclohexyl-1-methyl-1H-pyrazole-5-carboxamide] | < 6.00 | ≥ 80 | < 6.00 | < 5.60 | – | – |
| COc1cc2ncc(-n3cc(NC(=O)Cc4ccccc4Cl)cn3)n2cc1S(=O)(=O)C(C)(C)C [Example 152, N-(1-(6-(tert-butylsulfonyl)-7-methoxyimidazo[1,2-a]pyridin-3-yl)-1H-pyrazol-4-yl)-2-(2-chlorophenyl)acetamide] | > 6.70 | ≥ 80 | 6.00 to 7.00 | < 5.60 | – | – |
| COc1cc2ncc(-n3cc(NC(=O)OC(C)(C)C)cn3)n2cc1SC(C)(C)C [Example 153, tert-butyl (1-(6-(tert-butylthio)-7-methoxyimidazo[1,2-a]pyridin-3-yl)-1H-pyrazol-4-yl)carbamate] | 6.30 to 6.70 | ≥ 80 | < 6.00 | < 5.60 | – | – |
| COc1cc2ncc(-n3cc(NC(=O)OC(C)(C)C)cn3)n2cc1S(=O)(=O)C(C)(C)C [Example 154, tert-butyl (1-(6-(tert-butylsulfonyl)-7-methoxyimidazo[1,2-a]pyridin-3-yl)-1H-pyrazol-4-yl)carbamate] | 6.00 to 6.30 | ≥ 80 | < 6.00 | < 5.60 | – | – |
| COc1cc2ncc(-n3cc(NC(C)=O)cn3)n2cc1S(=O)(=O)C(C)(C)C [Example 155, N-(1-(6-(tert-butylsulfonyl)-7-methoxyimidazo[1,2-a]pyridin-3-yl)-1H-pyrazol-4-yl)acetamide] | < 6.00 | ≤ 30 | < 6.00 | < 5.60 | – | – |
| COc1cc2ncc(-n3cc(NC(=O)Cc4cccc(F)c4Cl)cn3)n2cc1S(=O)(=O)C(C)(C)C [Example 156, N-(1-(6-(tert-butylsulfonyl)-7-methoxyimidazo[1,2-a]pyridin-3-yl)-1H-pyrazol-4-yl)-2-(2-chloro-3-fluorophenyl)acetamide] | 6.00 to 6.30 | ≥ 80 | < 6.00 | < 5.60 | – | – |
| COc1cc2ncc(-n3cc(NC(=O)Cc4cc(F)ccc4Cl)cn3)n2cc1S(=O)(=O)C(C)(C)C [Example 157, N-(1-(6-(tert-butylsulfonyl)-7-methoxyimidazo[1,2-a]pyridin-3-yl)-1H-pyrazol-4-yl)-2-(2-chloro-5-fluorophenyl)acetamide] | 6.00 to 6.30 | ≥ 80 | < 6.00 | < 5.60 | – | – |
